Experimental data from PMC11876671, “Investigating blood–brain barrier penetration and neurotoxicity of natural products for central nervous system drug development” (Scientific Reports, 2025).
Structures can show the parent of a compound that is named as a salt. Where two headings read alike, the source gives them in different places.

Legend:
[1] = for PAMPA-BBB Pe(10^-6 cm/sec): Table S3: compounds exhibiting low PAMPA-BBB permeability
[2] = system: GFP-labeled iPSC-derived human cortical glutamatergic neurons; experiment: cells; format: cell-based; settings: for AC50: Table S1, total neurite length, 48 hr, head prints no unit, µM per Table 1 and Fig. 5, read-out: TNL AC50 (48 hr)
in vitro = settings: PAMPA, PAMPA-BBB Pe
[3] = Table S2: compounds exhibiting moderate to high PAMPA-BBB permeability
[4] = Table S1, 60 min, room temperature, 0.05 mM

O=C(OC[C@H]1O[C@H](OC(=O)c2cc(O)c(O)c(OC(=O)c3cc(O)c(O)c(O)c3)c2)[C@H](OC(=O)c2cc(O)c(O)c(OC(=O)c3cc(O)c(O)c(O)c3)c2)[C@@H](OC(=O)c2cc(O)c(O)c(OC(=O)c3cc(O)c(O)c(O)c3)c2)[C@@H]1OC(=O)c1cc(O)c(O)c(OC(=O)c2cc(O)c(O)c(O)c2)c1)c1cc(O)c(O)c(OC(=O)c2cc(O)c(O)c(O)c2)c1 [NCGC00263877-02]
PAMPA-BBB Pe(10^-6 cm/sec) [1]: <1 10^-6 cm/sec

COc1ccc(-c2cc(=O)c3c(O)cc(OC)c(OC)c3o2)c(OC)c1 [NCGC00263973-02]
PAMPA-BBB Pe [1, 3]: 201 10^-6 cm/sec

CC(=O)NCCc1ccc(O)c(-c2c(O)c(O)c3c(c2O)C(=O)c2c(cc(O)c(C(=O)O)c2C(=O)O)C3=O)c1 [NCGC00263986-01]
PAMPA-BBB Pe(10^-6 cm/sec) [1]: <1 10^-6 cm/sec

COC(=O)[C@H](Cc1ccccc1)NC(=O)/C(=C1\OC(=O)C(c2ccccc2)=C1O)c1ccccc1 [NCGC00263991-01]
PAMPA-BBB Pe(10^-6 cm/sec) [1]: <1 10^-6 cm/sec

O=C1CC[C@]23/C=C/C(=O)NCCCCNCCCNC(=O)/C=C/c4ccc(c2c4)O[C@@H]3C1 [NCGC00263997-01]
PAMPA-BBB Pe(10^-6 cm/sec) [1]: <1 10^-6 cm/sec

COC(=O)C[C@H]1C2(C)C[C@]34O[C@@]5(C)O[C@@]6([C@H](OC(C)=O)C(OC(C)=O)[C@]7(C)C(/C(=C(/O)C(C)C)C(=O)O[C@H]7c7ccoc7)[C@@]6(O5)[C@H](OC(C)=O)[C@@]3(O)C2OC(=O)C(C)C)[C@]14C (stereo partly shown) [NCGC00264007-02]
PAMPA-BBB Pe [1, 3]: 28 10^-6 cm/sec

COc1ccc(-c2oc3cc(OC)c(OC)c(OC)c3c(=O)c2OC)cc1 [NCGC00264011-02]
PAMPA-BBB Pe [1, 3]: 308 10^-6 cm/sec

C[N+]12CC[C@@]34c5ccccc5N5C(=O)C[C@@H]6OCC=C(C1)[C@H](CC32)[C@@H]6C54 (stereo partly shown) [NCGC00264058-02]
PAMPA-BBB Pe(10^-6 cm/sec) [1]: <1 10^-6 cm/sec

COc1cc(/C=C2/C(=O)Nc3ccccc32)cc(OC)c1O [NCGC00343740-01]
PAMPA-BBB Pe(10^-6 cm/sec) [1]: 4.8 10^-6 cm/sec

COC(=O)C1=CC[C@@]23CC[C@@H]([C@@](C)(/C=C/C=C(\C)C(=O)O)OC2=O)[C@@]3(OC(C)=O)CC1 [NCGC00344122-04]
PAMPA-BBB Pe(10^-6 cm/sec) [1]: <1 10^-6 cm/sec

O=C1c2ccccc2-[n+]2ccc3c([nH]c4ccccc43)c21 [NCGC00346951-03]
PAMPA-BBB Pe(10^-6 cm/sec) [1]: <1 10^-6 cm/sec

CCCc1cc(=O)c2ccccc2n1C [NCGC00351153-01]
PAMPA-BBB Pe [1, 3]: 137 10^-6 cm/sec

COc1ccccc1O[C@@H]1O[C@H](CO)[C@H](O)[C@H](O)[C@H]1O [NCGC00351878-01]
PAMPA-BBB Pe(10^-6 cm/sec) [1]: 1.5 10^-6 cm/sec

OC[C@H]1O[C@@H](Oc2cccc3ccccc23)[C@H](O)[C@@H](O)[C@H]1O [NCGC00351880-01]
PAMPA-BBB Pe(10^-6 cm/sec) [1]: <1 10^-6 cm/sec

OC[C@H]1O[C@@H](n2cnc3cncnc32)[C@H](O)[C@@H]1O [NEBULARINE¦NEBULARINE]
PAMPA-BBB Pe(10^-6 cm/sec) [1]: <1 10^-6 cm/sec

COc1ccc2c(c1OC)C(=O)O[C@@H]2[C@H]1c2c(cc3c(c2OC)OCO3)CCN1C [NOSCAPINE HYDROCHLORIDE]
PAMPA-BBB Pe ([1]; PAMPA): 75 10^-6 cm/sec

COc1ccc(CC(=O)c2ccc(O)cc2O)cc1 [ONONETIN]
AC50 ([2]; Homo sapiens, Neuron): 24.5 µM
PAMPA-BBB Pe [1, 3]: 172 10^-6 cm/sec
Papp (in vitro; [4]): 172 ×10⁻⁶ cm/s

O=C(/C=C/c1ccc(O)c(O)c1)OCCc1ccccc1 [PHENETHYL CAFFEATE]
PAMPA-BBB Pe [1, 3]: >1000 10^-6 cm/sec

O=C1C=C2C=C[C@@H]3C[C@@]2(O1)[C@H]1CCCCN31 [Securinine]
AC50 ([2]; Homo sapiens, Neuron): 16.2 µM
PAMPA-BBB Pe [1, 3]: 22 10^-6 cm/sec
Papp (in vitro; [4]): 22 ×10⁻⁶ cm/s

c1cc2c(cc1[C@H]1OC[C@H]3[C@@H]1CO[C@@H]3c1ccc3c(c1)OCO3)OCO2 [Sesamin]
AC50 ([2]; Homo sapiens, Neuron): 14.2 µM
Papp (in vitro; [4]): 211 ×10⁻⁶ cm/s
Papp (in vitro; [3]): 211 ×10⁻⁶ cm/s

O=c1c2ccccc2oc2ccccc12 [Xanthenone]
AC50 ([2]; Homo sapiens, Neuron): 18.6 µM
Papp (in vitro; [4]): 173 ×10⁻⁶ cm/s

Cn1cccc1-c1cccnc1 [beta-NICOTYRINE]
AC50 ([2]; Homo sapiens, Neuron): 8.46 µM
Papp (in vitro; [4]): 102 ×10⁻⁶ cm/s

Cn1c(=O)c2c(ncn2C)n(C)c1=O [caffeine, reference compound]
PAMPA-BBB permeability category ([1]; PAMPA): low permeability

NC(=O)N1c2ccccc2C=Cc2ccccc21 [carbamazepine, reference compound]
PAMPA-BBB permeability category ([1]; PAMPA): moderate permeability

CC(=O)[C@H]1CC[C@H]2[C@@H]3CCC4=CC(=O)CC[C@]4(C)[C@H]3CC[C@]12C [progesterone, reference compound]
PAMPA-BBB permeability category ([1]; category in words): high permeability

C=C(C)[C@H]1Cc2c(ccc3c2O[C@@H]2COc4cc(OC)c(OC)cc4[C@@H]2C3=O)O1 [rotenone, reference compound]
inhibition of cortical neurite outgrowth (total neurite length) ([2]; 24 and 48 h treatment, in words): inhibited cortical neurite outgrowth in a concentration-dependent manner

Desoxycortone
AC50 [2]: 33.5 µM
PAMPA-BBB Pe [1, 4]: 65.13 10^-6 cm/sec

\LYCORINE HYDROCHLORIDE
PAMPA-BBB Pe(10^-6 cm/sec) [1]: 3.2 10^-6 cm/sec
